# Results from article PMC12749166, “Fragment-based drug design of a bacterial kinase inhibitor capable of increasing the antibiotic sensitivity of clinical isolates” (Communications Chemistry, 2025).
# Read-outs that look alike come from different tables or passages of the source.
# Key:
# [1] = target: T1, APH(2”)-IVa (Enterococcus casseliflavus, UniProt O68183); assay: biochemical; settings: Ki (µM), inhibition constant, ATP-competitive; 0-2 mM MgATP, 100 µM kanamycin A, global fitting
# [2] = target: T1, APH(2”)-IVa; assay: biochemical; assay type: binding; settings: read-out: ΔTm (°C)
# Protocol: Thermal shift assays were performed using an RTqPCR machine Mx3005P (Stratagene) in 96-well plates (Thermo-Fast low Profile, ThermoScientific) by mixing the protein at 5 µM, SYPRO® Orange (Sigma Aldrich) at […], and fragments at 500 µM. Fluorescence was followed with Cy3 and SYAL filters. Denaturation curves were collected using MxPro-Mx3005P v4.10 software and analyzed using the implemented version of wTSA-CRAFT[36].
# [3] = target: T1, APH(2”)-IVa
# [4] = tested on: P. aeruginosa clinical isolates; assay: MIC by broth micro-dilution; assay type: cell-based
# [5] = tested on: S. aureus C0032; assay: MIC by broth micro-dilution; assay type: cell-based; settings: S. aureus C0032, aph(3')-IIIa ant(6)
# [6] = tested on: S. aureus C0032; assay: Checkerboard assay of 83 with kanamycin A; assay type: cell-based; settings: for checkerboard well reading (growth): Supp. Figure 3 C, 83 0 µg.mL-1
# [7] = tested on: P. aeruginosa C0307; assay: Checkerboard assay of 83 with kanamycin A; assay type: cell-based; settings: for MIC of kanamycin A: [83] 0 µg mL^−1, 18 h at 37 °C; for checkerboard well reading (growth): 83 0 µg.mL-1
# [8] = Pseudomonas aeruginosa, P. aeruginosa C0214, aph(3')-IIb, read-out: MIC
# [9] = Pseudomonas aeruginosa, P. aeruginosa C0307, aph(3')-IIb, read-out: MIC
# [10] = Staphylococcus aureus, read-out: MIC
# T1 sequence (O68183 1-301): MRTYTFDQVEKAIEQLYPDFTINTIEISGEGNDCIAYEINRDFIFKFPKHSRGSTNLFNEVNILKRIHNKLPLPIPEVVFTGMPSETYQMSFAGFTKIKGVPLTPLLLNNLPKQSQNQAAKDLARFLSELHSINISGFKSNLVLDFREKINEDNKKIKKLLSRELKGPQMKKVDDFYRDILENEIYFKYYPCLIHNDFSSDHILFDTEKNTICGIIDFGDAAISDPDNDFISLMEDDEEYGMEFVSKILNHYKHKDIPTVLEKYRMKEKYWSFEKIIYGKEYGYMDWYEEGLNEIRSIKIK
compound,measurement,setting,value
O=C(NCCc1ccn(-c2ccccc2)n1)c1cc(NC2CC2)ncc1Cl [Compound 36-9],Ki,[1],13.4 µM
O=C(Nc1ccc(O)cc1)Nc1ccc(F)cc1 [Compound 37],ΔTm at 500 µM,[2],1.17 °C
Nc1cncc(-c2cc[nH]n2)c1 [Compound 58],ΔTm at 500 µM,[2],1.18 °C
O=Cc1cncc(-c2cc[nH]n2)c1 [Compound 66],ΔTm at 500 µM,[2],0.54 °C
COC(=O)c1cncc(-c2cc[nH]n2)c1 [Compound 67],ΔTm at 500 µM,[2],1.16 °C
Nc1cc(-c2ccn[nH]2)ccn1 [Compound 68],ΔTm at 500 µM,[2],1.29 °C
same,Ki,[1],81.9 µM
O=C(O)c1c[nH]c2ncc(Cl)cc12 [Compound 79],Ki,[1],27.5 µM
NC(=O)c1c[nH]c2ncc(Cl)cc12 [Compound 80],Ki,[1],10.3 µM
CNC(=O)c1c[nH]c2ncc(Cl)cc12 [Compound 81],Ki,[1],9.47 µM
CN(C)C(=O)c1c[nH]c2ncc(Cl)cc12 [Compound 82],Ki,[1],19.7 µM
Clc1cnc2[nH]ccc2c1-c1cn[nH]c1 [Compound 84],Ki,[1],1.58 µM
Clc1cnc2[nH]ccc2c1-c1ccc[nH]1 [Compound 85],Ki,[1],1.74 µM
Clc1cnc2[nH]ccc2c1-c1ccsc1 [Compound 86],Ki,[1],1.75 µM
Nc1ccccn1 [Compound F68],Inhibition,[3],11%
same,ΔTm at 500 µM,[2],-0.27 °C
same,Ki,[1],260 µM
Nc1ccc(Cl)cn1 [Compound F69],Inhibition relative to F68,"[3]; 500 µM, times more inhibition than F68",6.2 times
"c1cnc2[nH]ccc2c1 [Compound F136, 7-azaindole]",ΔTm at 500 µM,[2],0.06 °C
CC(=O)c1cc2ccccc2oc1=O [Compound F144],ΔTm at 500 µM,[2],0.09 °C
"OCc1c[nH]c2ncccc12 [Compound F355, 3-hydroxymethyl-7-azaindole]",ΔTm at 500 µM,[2],-0.41 °C
C[C@@H](O)[C@H]1C(=O)N2C(C(=O)O)=C(S[C@@H]3CN[C@H](CNS(N)(=O)=O)C3)[C@H](C)[C@H]12 [Doripenem],MIC,[4]; [8],0.5 to 1 µg/mL
same,MIC,[4]; [9],0.25 µg/mL
same,MIC,[5]; [10],> 4 µg/mL
C[C@@H](O)[C@H]1C(=O)N2C(C(=O)O)=C(S[C@@H]3CN[C@H](C(=O)Nc4cccc(C(=O)O)c4)C3)[C@H](C)[C@H]12 [Ertapenem],MIC,[4]; [8],> 2 µg/mL
same,MIC,[4]; [9],8 to 16 µg/mL
same,MIC,[5]; [10],4 µg/mL
CNC(C)C1CCC(N)C(OC2C(N)CC(N)C(OC3OCC(C)(O)C(NC)C3O)C2O)O1 (centres unmarked) [Gentamicin],MIC,[4]; [8],2 µg/mL
same,MIC,[4]; [9],2 µg/mL
same,MIC,[5]; [10],< 1 µg/mL
C[C@@H](O)[C@H]1C(=O)N2C(C(=O)O)=C(SCCN=CN)C[C@H]12 [Imipenem],MIC,[4]; [8],> 2 µg/mL
same,MIC,[4]; [9],2 µg/mL
C[C@@H](O)[C@H]1C(=O)N2C(C(=O)O)=C(S[C@@H]3CN[C@H](C(=O)N(C)C)C3)[C@H](C)[C@H]12 [Meropenem],MIC,[4]; [8],0.5 to 1 µg/mL
same,MIC,[4]; [9],0.063 to 0.125 µg/mL
same,MIC,[5]; [10],> 4 µg/mL
[H]/N=C(/N)N[C@H]1[C@H](O)[C@@H](O)[C@H](O[C@@H]2O[C@@H](C)[C@](O)(C=O)[C@H]2O[C@@H]2O[C@@H](CO)[C@H](O)[C@@H](O)[C@@H]2NC)[C@@H](N/C(N)=N\[H])[C@@H]1O [Streptomycin],MIC,[4]; [8],32 µg/mL
same,MIC,[4]; [9],64 µg/mL
same,MIC,[5]; [10],2 to 4 µg/mL
kanamycin A [reference compound],MIC of kanamycin A,"[6]; 0.125 µg mL^−1 imipenem, [83] 0 µg mL^−1, 18 h at 37 °C",4096 µg/mL
same,checkerboard well reading (growth),[6]; kanamycin A 2 µg.mL-1,0.337
same,checkerboard well reading (growth),[6]; kanamycin A 4 µg.mL-1,0.322
same,checkerboard well reading (growth),[6]; kanamycin A 8 µg.mL-1,0.304
same,checkerboard well reading (growth),[6]; kanamycin A 16 µg.mL-1,0.292
same,checkerboard well reading (growth),[6]; kanamycin A 32 µg.mL-1,0.272
same,checkerboard well reading (growth),[6]; kanamycin A 64 µg.mL-1,0.258
same,checkerboard well reading (growth),[6]; kanamycin A 128 µg.mL-1,0.312
same,MIC,"[4]; P. aeruginosa 1676, aph(3')-IIb",128 µg/mL
same,MIC,"[4]; P. aeruginosa 1761, aph(3')-IIb",128 µg/mL
same,MIC,"[4]; P. aeruginosa 1766, aph(3')-IIb",128 µg/mL
same,MIC,"[4]; P. aeruginosa 1781, aph(3')-IIb",512 µg/mL
same,MIC,"[4]; P. aeruginosa 1869, aph(3')-IIb aac(6')-Ib3",1024 µg/mL
same,MIC,"[4]; P. aeruginosa C0214, aph(3')-IIb",256 to 512 µg/mL
same,MIC,"[4]; P. aeruginosa C0307, aph(3')-IIb",64 to 128 µg/mL
same,MIC,"[4]; P. aeruginosa C0307, aph(3')-IIb, listed as Kanamycin A",64 to 128 µg/mL
same,MIC,[5],4096 µg/mL
same,MIC of kanamycin A,[7]; 0 µg mL^−1 imipenem,64 µg/mL
same,MIC of kanamycin A,[7]; 0.05 µg mL^−1 imipenem,64 µg/mL
same,checkerboard well reading (growth),"[7]; Supp. Figure 3 A, kanamycin A 2 µg.mL-1",1.208
same,checkerboard well reading (growth),"[7]; Supp. Figure 3 A, kanamycin A 4 µg.mL-1",1.193
same,checkerboard well reading (growth),"[7]; Supp. Figure 3 A, kanamycin A 8 µg.mL-1",1.188
same,checkerboard well reading (growth),"[7]; Supp. Figure 3 A, kanamycin A 16 µg.mL-1",1.223
same,checkerboard well reading (growth),"[7]; Supp. Figure 3 A, kanamycin A 32 µg.mL-1",1.192
same,checkerboard well reading (growth),"[7]; Supp. Figure 3 A, kanamycin A 64 µg.mL-1",0.162
same,checkerboard well reading (growth),"[7]; Supp. Figure 3 A, kanamycin A 128 µg.mL-1",0.039
same,checkerboard well reading (growth),"[7]; Supp. Figure 3 B, kanamycin A 2 µg.mL-1",1.210
same,checkerboard well reading (growth),"[7]; Supp. Figure 3 B, kanamycin A 4 µg.mL-1",1.193
same,checkerboard well reading (growth),"[7]; Supp. Figure 3 B, kanamycin A 8 µg.mL-1",1.143
same,checkerboard well reading (growth),"[7]; Supp. Figure 3 B, kanamycin A 16 µg.mL-1",1.167
same,checkerboard well reading (growth),"[7]; Supp. Figure 3 B, kanamycin A 32 µg.mL-1",1.151
same,checkerboard well reading (growth),"[7]; Supp. Figure 3 B, kanamycin A 64 µg.mL-1",0.174
same,checkerboard well reading (growth),"[7]; Supp. Figure 3 B, kanamycin A 128 µg.mL-1",0.043
